Where two headings read alike, the source gives them in different places.
Legend:
Type in all cases: in vitro ADME
[1] = Metabolic stability in pooled human liver microsomes; details: human liver microsomes 0.5 mg/mL, 1 μM compound, 37° C.
CYP2D6 = molecular target: T1, CYP2D6 (Homo sapiens, UniProt P10635); assay: CYP inhibition in human liver microsomes, CYP2D6; details: probe dextromethorphan, substrate dextromethorphan, read-out: CYP2D6 Inh %
T1 construct: incubated with human liver microsomes; from tissue; host or cells: human liver microsomes
T1 sequence (P10635 whole entry): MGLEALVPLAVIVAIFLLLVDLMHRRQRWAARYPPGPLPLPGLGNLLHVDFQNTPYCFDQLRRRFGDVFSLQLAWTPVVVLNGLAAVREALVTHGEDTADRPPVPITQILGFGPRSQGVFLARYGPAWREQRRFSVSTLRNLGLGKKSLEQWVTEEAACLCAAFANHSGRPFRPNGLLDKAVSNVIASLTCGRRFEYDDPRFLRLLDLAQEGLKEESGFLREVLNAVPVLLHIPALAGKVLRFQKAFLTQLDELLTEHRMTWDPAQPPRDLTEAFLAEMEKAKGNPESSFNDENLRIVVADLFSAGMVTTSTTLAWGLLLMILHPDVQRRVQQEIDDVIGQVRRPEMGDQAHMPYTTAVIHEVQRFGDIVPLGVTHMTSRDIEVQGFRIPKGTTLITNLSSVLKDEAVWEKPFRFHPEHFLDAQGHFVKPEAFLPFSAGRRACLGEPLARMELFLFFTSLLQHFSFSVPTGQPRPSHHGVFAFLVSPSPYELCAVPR

CYP3A4&5 = assay: CYP inhibition in human liver microsomes, CYP3A4&5 testosterone; details: probe testosterone, substrate testosterone, read-out: CYP3A4&5 testosterone Inh %
CYP2B6 = molecular target: T2, CYP2B6 (Homo sapiens, UniProt P20813); assay: CYP inhibition in human liver microsomes, CYP2B6; details: probe bupropion, substrate bupropion, read-out: CYP2B6 Inh %
T2 construct: incubated with human liver microsomes; from tissue; host or cells: human liver microsomes
T2 sequence (P20813 1-491): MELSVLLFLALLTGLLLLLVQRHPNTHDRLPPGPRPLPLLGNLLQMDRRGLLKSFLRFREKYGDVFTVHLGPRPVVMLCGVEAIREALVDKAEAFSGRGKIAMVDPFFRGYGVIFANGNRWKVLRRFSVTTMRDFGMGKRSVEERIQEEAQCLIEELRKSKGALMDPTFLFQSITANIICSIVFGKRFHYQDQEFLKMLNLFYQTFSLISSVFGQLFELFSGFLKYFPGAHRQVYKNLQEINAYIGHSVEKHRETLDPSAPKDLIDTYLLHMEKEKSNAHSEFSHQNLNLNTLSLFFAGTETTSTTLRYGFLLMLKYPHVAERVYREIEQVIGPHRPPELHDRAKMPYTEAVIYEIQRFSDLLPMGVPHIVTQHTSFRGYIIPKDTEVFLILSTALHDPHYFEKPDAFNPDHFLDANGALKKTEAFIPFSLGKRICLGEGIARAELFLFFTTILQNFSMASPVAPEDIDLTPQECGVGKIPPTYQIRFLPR

CYP1A = molecular target: T3, CYP1A (Homo sapiens, UniProt P05177); assay: CYP inhibition in human liver microsomes, CYP1A; details: probe phenacetin, substrate phenacetin, read-out: CYP1A Inh %
T3 construct: incubated with human liver microsomes; from tissue; host or cells: human liver microsomes
T3 sequence (P05177 whole entry): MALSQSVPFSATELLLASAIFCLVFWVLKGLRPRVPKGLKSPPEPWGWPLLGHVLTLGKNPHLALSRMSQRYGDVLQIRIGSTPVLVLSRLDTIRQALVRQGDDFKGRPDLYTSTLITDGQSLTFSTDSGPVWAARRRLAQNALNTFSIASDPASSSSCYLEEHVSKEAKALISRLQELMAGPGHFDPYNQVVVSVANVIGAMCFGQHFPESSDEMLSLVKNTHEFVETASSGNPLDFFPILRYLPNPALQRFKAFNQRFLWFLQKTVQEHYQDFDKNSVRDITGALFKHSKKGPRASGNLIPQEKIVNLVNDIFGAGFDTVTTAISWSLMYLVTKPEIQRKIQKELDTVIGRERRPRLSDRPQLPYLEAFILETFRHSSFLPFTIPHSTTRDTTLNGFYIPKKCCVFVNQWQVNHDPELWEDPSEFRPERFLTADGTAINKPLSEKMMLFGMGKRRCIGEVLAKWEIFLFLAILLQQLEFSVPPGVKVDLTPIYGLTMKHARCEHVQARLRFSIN

CYP2C9 = CYP2C9 (Homo sapiens, UniProt P11712); assay: CYP inhibition in human liver microsomes, CYP2C9; set-up: incubated with human liver microsomes; from tissue; host or cells: human liver microsomes; details: probe diclofenac, substrate diclofenac, read-out: CYP2C9 Inh %
CYP2C9, sequence (P11712 whole entry): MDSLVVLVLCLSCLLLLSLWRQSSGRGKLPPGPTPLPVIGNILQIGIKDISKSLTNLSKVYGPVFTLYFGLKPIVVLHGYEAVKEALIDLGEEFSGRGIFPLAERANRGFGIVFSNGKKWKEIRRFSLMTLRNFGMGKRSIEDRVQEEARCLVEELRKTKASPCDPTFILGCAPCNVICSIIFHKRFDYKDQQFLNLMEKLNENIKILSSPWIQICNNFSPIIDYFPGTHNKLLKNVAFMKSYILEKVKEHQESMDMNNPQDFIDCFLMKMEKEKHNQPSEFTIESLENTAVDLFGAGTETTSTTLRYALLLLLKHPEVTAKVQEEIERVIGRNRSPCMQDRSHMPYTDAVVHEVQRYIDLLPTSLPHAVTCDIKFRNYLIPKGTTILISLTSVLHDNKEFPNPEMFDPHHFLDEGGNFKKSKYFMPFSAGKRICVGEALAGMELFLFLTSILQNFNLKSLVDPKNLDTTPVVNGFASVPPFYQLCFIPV

CYP2C8 = molecular target: T4, CYP2C8 (Homo sapiens, UniProt P10632); assay: CYP inhibition in human liver microsomes, CYP2C8; details: probe paclitaxel and amodiaquine, substrates paclitaxel and amodiaquine, read-out: CYP2C8 Inh %
T4 construct: incubated with human liver microsomes; from tissue; host or cells: human liver microsomes
T4 sequence (P10632 1-490): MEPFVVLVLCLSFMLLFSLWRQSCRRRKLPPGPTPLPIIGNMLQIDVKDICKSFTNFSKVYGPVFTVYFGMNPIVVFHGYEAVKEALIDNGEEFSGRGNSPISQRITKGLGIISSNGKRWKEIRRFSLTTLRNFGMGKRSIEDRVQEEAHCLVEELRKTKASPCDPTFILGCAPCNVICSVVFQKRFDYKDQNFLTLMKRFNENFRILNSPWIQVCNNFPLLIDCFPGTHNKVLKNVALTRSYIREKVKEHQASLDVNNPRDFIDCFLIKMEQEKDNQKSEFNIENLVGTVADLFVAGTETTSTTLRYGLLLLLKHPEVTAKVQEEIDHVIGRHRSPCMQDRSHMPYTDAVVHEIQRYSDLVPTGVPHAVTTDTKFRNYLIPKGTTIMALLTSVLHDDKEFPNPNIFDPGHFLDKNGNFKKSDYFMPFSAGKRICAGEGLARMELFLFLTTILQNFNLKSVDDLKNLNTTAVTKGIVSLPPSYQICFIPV

CYP3A4 = CYP3A4 (Homo sapiens, UniProt P08684); assay: CYP inhibition in human liver microsomes, CYP3A4 midazolam; set-up: incubated with human liver microsomes; from tissue; host or cells: human liver microsomes; details: probe midazolam, substrate midazolam, read-out: CYP3A4 midazolam Inh %
CYP3A4, sequence (P08684 whole entry): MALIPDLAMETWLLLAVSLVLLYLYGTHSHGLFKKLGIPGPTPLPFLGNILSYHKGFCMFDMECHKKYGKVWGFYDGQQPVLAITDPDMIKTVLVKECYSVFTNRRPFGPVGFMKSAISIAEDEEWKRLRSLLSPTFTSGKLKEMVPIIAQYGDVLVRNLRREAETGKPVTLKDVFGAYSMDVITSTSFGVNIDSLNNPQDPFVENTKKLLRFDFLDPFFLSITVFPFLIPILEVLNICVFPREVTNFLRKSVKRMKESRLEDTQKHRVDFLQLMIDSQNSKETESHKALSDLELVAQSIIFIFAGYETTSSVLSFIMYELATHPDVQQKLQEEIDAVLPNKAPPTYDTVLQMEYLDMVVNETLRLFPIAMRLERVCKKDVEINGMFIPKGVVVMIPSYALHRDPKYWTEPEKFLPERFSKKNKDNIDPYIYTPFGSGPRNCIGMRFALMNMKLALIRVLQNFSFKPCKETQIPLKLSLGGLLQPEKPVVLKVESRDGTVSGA

CYP2C19 = molecular target: T5, CYP2C19 (Homo sapiens, UniProt P33261); assay: CYP inhibition in human liver microsomes, CYP2C19; details: probe omeprazole, substrate omeprazole, read-out: CYP2C19 Inh %
T5 construct: incubated with human liver microsomes; from tissue; host or cells: human liver microsomes
T5 sequence (P33261 whole entry): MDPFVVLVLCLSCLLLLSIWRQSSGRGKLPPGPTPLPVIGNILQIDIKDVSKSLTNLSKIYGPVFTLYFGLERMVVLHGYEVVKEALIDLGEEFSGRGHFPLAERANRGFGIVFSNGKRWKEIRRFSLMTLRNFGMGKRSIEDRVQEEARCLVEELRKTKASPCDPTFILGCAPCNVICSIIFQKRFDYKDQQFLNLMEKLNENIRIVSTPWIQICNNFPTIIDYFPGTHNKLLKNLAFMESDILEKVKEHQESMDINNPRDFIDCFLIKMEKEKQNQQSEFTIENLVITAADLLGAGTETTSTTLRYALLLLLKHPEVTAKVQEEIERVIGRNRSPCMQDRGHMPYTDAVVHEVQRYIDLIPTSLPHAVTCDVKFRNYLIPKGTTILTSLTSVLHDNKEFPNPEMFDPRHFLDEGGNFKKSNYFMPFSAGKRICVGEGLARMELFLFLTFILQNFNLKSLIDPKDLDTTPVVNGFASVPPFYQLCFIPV

[2] = with 1 mM NADPH, read-out: T1/2, + NaDPH
[3] = without NADPH, read-out: T1/2, no NaDPH

| SMILES | half-life at 1 μM [1, 2] | half-life at 1 μM [1, 3] | inhibition at 10 µM (CYP2D6) | inhibition at 10 µM (CYP3A4&5) | inhibition at 10 µM (CYP2B6) | inhibition at 10 µM (CYP1A) | inhibition at 10 µM (CYP2C9) | inhibition at 10 µM (CYP2C8) | inhibition at 10 µM (CYP3A4) | inhibition at 10 µM (CYP2C19) |
| --- | --- | --- | --- | --- | --- | --- | --- | --- | --- | --- |
| COC(=O)NS(=O)(=O)c1ccc(CC(C)C)cc1-c1ccc(Cn2ccnc2C(C)(C)C)c(F)c1 [Example 5, Methyl ((4′-((2-(tert-butyl)-1H-imidazol-1-yl)methyl)-3′-fluoro-5-isobutyl-[1,1′-biphenyl]-2-yl)sulfonyl)carbamate] | > 60 min | > 60 min | 17.7% | 15.1% | 26.2% | -13.1% | 72% | 87.9% | 3.8% | 34.4% |
| CCOC(=O)NS(=O)(=O)c1ccc(CC(C)C)cc1-c1ccc(Cn2ccnc2C(C)(C)C)c(F)c1 [Example 6, Ethyl ((4′-((2-(tert-butyl)-1H-imidazol-1-yl)methyl)-3′-fluoro-5-isobutyl-[1,1′-biphenyl]-2-yl)sulfonyl)carbamate] | 12 min | 14 min | 33.1% | 31% | 26.4% | 8.6% | 72.2% | 53% | 19.9% | 49.3% |
| CCCCOC(=O)NS(=O)(=O)c1ccc(CC(C)C)cc1-c1ccc(Cn2ccnc2C(C)C)c(F)c1 [Example 7, Butyl ((3′-fluoro-5-isobutyl-4′-((2-isopropyl-1H-imidazol-1-yl)methyl)-[1,1′-biphenyl]-2-yl)sulfonyl)carbamate] | 18 min | 20 min | -4.1% | 29.7% | 52.2% | 6.3% | 80.7% | 73.9% | 9.7% | 59.3% |
| COC(=O)NS(=O)(=O)c1ccc(CC(C)C)cc1-c1ccc(Cn2ccnc2C(C)C)c(F)c1 [Example 9, Methyl ((3′-fluoro-5-isobutyl-4′-((2-isopropyl-1H-imidazol-1-yl)methyl)-[1,1′-biphenyl]-2-yl)sulfonyl)carbamate] | > 60 min | > 60 min | -2.4% | 17.5% | 28.2% | 2.5% | 37.9% | 77.2% | -4.9% | 27.2% |
| CCCCOC(=O)NS(=O)(=O)c1ccc(CC(C)C)cc1-c1ccc(Cn2ccnc2C)c(F)c1 [Example 10, Butyl ((3′-fluoro-5-isobutyl-4′-((2-methyl-1H-imidazol-1-yl)methyl)-[1,1′-biphenyl]-2-yl)sulfonyl)carbamate] | 32 min | 35 min | -12.9% | 24.5% | 31.8% | 3.2% | 68.6% | 46.9% | 11.5% | 54.9% |
| COC(=O)NS(=O)(=O)c1ccc(CC(C)C)cc1-c1ccc(Cn2ccnc2C)c(F)c1 [Example 13, Methyl ((3′-fluoro-5-isobutyl-4′-((2-methyl-1H-imidazol-1-yl)methyl)-[1,1′-biphenyl]-2-yl)sulfonyl)carbamate] | > 60 min | > 60 min | -0.8% | 14.5% | 18.4% | 7.6% | 32.3% | 27.7% | 9.3% | 24.6% |
| CC(C)Cc1ccc(S(=O)(=O)NC(=O)OCCO)c(-c2ccc(Cn3ccnc3C(C)(C)C)cc2)c1 [Example 16, 2-Hydroxyethyl (4′-((2-(tert-butyl)-1H-imidazol-1-yl)methyl)-5-isobutyl-[1,1′-biphenyl]-2-yl)sulfonylcarbamate] | > 60 min | > 60 min |  |  |  |  |  |  |  |  |

Results, then the compound that gave them:

| half-life at 1 μM [1, 2] | half-life at 1 μM [1, 3] | inhibition at 10 µM (CYP2D6) | inhibition at 10 µM (CYP3A4&5) | inhibition at 10 µM (CYP2B6) | inhibition at 10 µM (CYP1A) | inhibition at 10 µM (CYP2C9) | inhibition at 10 µM (CYP2C8) | inhibition at 10 µM (CYP3A4) | inhibition at 10 µM (CYP2C19) | SMILES |
| --- | --- | --- | --- | --- | --- | --- | --- | --- | --- | --- |
| 36 min | 35 min | 1.2% | 19.4% | 32% | 10.4% | 50% | 76.7% | -4.7% | 33.7% | CCOC(=O)NS(=O)(=O)c1ccc(CC(C)C)cc1-c1ccc(Cn2ccnc2C(C)C)c(F)c1 [Example 8, Ethyl ((3′-fluoro-5-isobutyl-4′-((2-isopropyl-1H-imidazol-1-yl)methyl)-[1,1′-biphenyl]-2-yl)sulfonyl)carbamate] |
| 26 min | 26 min | 0.3% | 30.5% | 35% | 4.3% | 81.3% | 61.3% | 5.6% | 59.3% | CCCCOC(=O)NS(=O)(=O)c1ccc(CC(C)C)cc1-c1ccc(Cn2ccnc2CC)c(F)c1 [Example 11, Butyl ((4′-((2-ethyl-1H-imidazol-1-yl)methyl)-3′-fluoro-5-isobutyl-[1,1′-biphenyl]-2-yl)sulfonyl)carbamate] |
| > 60 min | 50 min | 2.9% | 12.6% | 18.9% | 5.9% | 52.6% | 39.7% | 8.6% | 50.7% | CCOC(=O)NS(=O)(=O)c1ccc(CC(C)C)cc1-c1ccc(Cn2ccnc2C)c(F)c1 [Example 12, Ethyl ((3′-fluoro-5-isobutyl-4′-((2-methyl-1H-imidazol-1-yl)methyl)-[1,1′-biphenyl]-2-yl)sulfonyl)carbamate] |
| 43 min | 46 min | 0.1% | 21.9% | 20.6% | 9.4% | 68% | 57.6% | -4.2% | 40.9% | CCOC(=O)NS(=O)(=O)c1ccc(CC(C)C)cc1-c1ccc(Cn2ccnc2CC)c(F)c1 [Example 14, Ethyl ((4′-((2-ethyl-1H-imidazol-1-yl)methyl)-3′-fluoro-5-isobutyl-[1,1′-biphenyl]-2-yl)sulfonyl)carbamate] |
| > 60 min | > 60 min | 2.2% | 18.4% | 16.1% | 7% | 59.6% | 52.4% | -5.3% | 21.5% | CCc1nccn1Cc1ccc(-c2cc(CC(C)C)ccc2S(=O)(=O)NC(=O)OC)cc1F [Example 15, Methyl ((4′-((2-ethyl-1H-imidazol-1-yl)methyl)-3′-fluoro-5-isobutyl-[1,1′-biphenyl]-2-yl)sulfonyl)carbamate] |
